Measured values taken from article PMC9116478, “Population Pharmacokinetics of Caspofungin and Dose Simulations in Heart Transplant Recipients” (Antimicrobial Agents and Chemotherapy, 2022).
Like-named read-outs stand apart in the source and are kept apart here.

Experiments:
[1] = Population pharmacokinetics of caspofungin in HTx and non-HTx patients (plasma LC-MS/MS, NONMEM two-compartment model); format: in vivo, human (patients); conditions: for clearance / Cmax: human, iv; for Cmax: read-out: Cmax (peak plasma concentration)
Source text: This was a prospective, single-center, open-label study. We recruited patients who underwent HTx at the Guangdong Provincial People’s Hospital in the SICU from July 2019 to July 2021. The inclusion criteria were: (i) patients aged 18 years or older who received caspofungin in SICU and accepted cardiac surgery and (ii) acceptability of multiple blood sampling. Patients who were allergic to caspofungin, those receiving drugs that can affect the PK of caspofungin, and those who could not receive multiple blood sampling were excluded. Patients who underwent HTx in SICU were recruited as the HTx group. Patients who never received HTx but underwent cardiac surgery and being in SICU were recruited in the control group. This study was approved by the Ethics Committee of Guangdong Provincial People’s Hospital, Guangdong Academy of Medical Sciences (approval number GDREC2018355(R1)H).
Caspofungin (Laboratoires Merck Sharp & Dohme Chibret, France) was administered by 1-h intravenous infusion at a dose of 50 mg every 24 h after a loading dose of 70 mg. Blood samples were collected before administration and at 1, 2, 6, 10, 16, and 24 h after the administration of caspofungin for at least 3 days. Plasma was separated by centrifugation of blood samples at 2,000 × g for 10 min at 4°C and stored at −80°C before analysis.
All plasma samples were detected by the liquid chromatography-tandem mass spectrometry (LC-MS/MS) method. First, 200 μL of acetonitrile-dissolved extraction working solution was added to 100 μL of plasma sample and mixed by vortexing at 3,000 rpm for 1 min. After centrifugation at 14,000 rpm for 15 min at 4°C, 2 μL supernatant was injected for LC-MS/MS analysis. The chromatographic column was an Agilent poroshell 120 SB-C18 (2.7 μm, 3.0 × 50 mm) column. The mobile phase was acetonitrile with 0.1% formic acid (A) and water with 0.1% formic acid (B). In the initial 0 to 0.5 min, the mobile phase was composed of 95% B and 5% A, and then within 0.5 to 1.5 min, the mobile phase B decreased linearly from 95% to 5% and remained unchanged for 1.5 to 2 min. Finally, it returned to 95% B and 5% A, and the entire analysis time was 5 min. The flow rate was 0.5 mL/min, and the column temperature was 35°C. A positive ion mode multiple reaction monitoring detection mode through electrospray ionization was performed with the transitions of m/z 547.3 → 538.2 for caspofungin and m/z 549.3 → 540.3 for caspofungin-d4 (IS). The linear range of the method was 0.4 to 25 mg/liter. The intraday and interday precision were 1.56 to 3.32% and 3.40 to 7.48%, respectively, and the deviation of accuracy was 0.96 to 2.21%.
We analyzed population PK data using the nonlinear mixed-effects modeling software NONMEM 7.3 (version 7.3, ICON plc, NY, USA). We employed one-, two-, and three-compartment pharmacokinetic models to fit the data and selected the most suitable basic structural model. Further, all potential covariates for caspofungin PK parameters reported in previous studies were analyzed. The covariates included demographic characteristics, renal function indices, liver function indices, HTx status, ECMO, and CRRT. Different covariate types have different variable models. Discrete covariates (such as sex) were modeled as follows. (1) Cij=Ctv,j×θjcov×enj
For continuous covariates (such as weight), an exponential model was selected with average covariates values and an adjusting factor. (2) Cij=Ctv,j×(cov/covave)^θj×e^ηj
In the above equations, Cij is the individual value. Ctv,j is the population typical value. cov in equation 1 is expressed as 0 or 1, cov in equation 2 is the value of the covariate, and θj is an impact factor. covave is the average value of a continuous covariate. Interindividual variability is shown as ηj, which is normally distributed with mean 0 and variance ω^2. Residual variability was modeled using a mixture of additive and proportional error models. […]

[2] = under normal plasma protein levels; cited from earlier work
Source text: Kurland et al. ([26]) found a negative correlation between hypoalbuminemia and elimination rate constant. […] They also identified total bilirubin (TBIL) as another covariate. ALB and TBIL levels were collectively found to affect CL of caspofungin.

Candida albicans = conditions: pharmacodynamic target used for PTA; cited from earlier work
Source text: (§1) This study used Matlab software for simulations. The simulated data were based on the virtual patients with different ALB levels (25, 30, 37, 45, and 50 g/liter) at various dosage regimens (50-, 70-, 100-, 150-, and 200-mg maintenance dose). The median ALB level of the research population was 37 g/liter. We generated 1,000 virtual patients whose pharmacokinetic parameters were randomly assigned according to the distributions with the median of CL, θALB-CL, and CL interindividual variations and their calculated standard deviations from bootstraps (Table 2) for the simulations. AUC was calculate ...

Candida glabrata = conditions: pharmacodynamic target used for PTA; cited from earlier work
Source text: as §1

Candida parapsilosis = conditions: pharmacodynamic target used for PTA; cited from earlier work
Source text: as §1

[3] = Control group (n = 31), median (range)
[4] = Heart transplantation group (n = 27), median (range)
[5] = population estimate, 58 patients, 414 plasma concentrations, 50 mg q24h i.v. after 70 mg loading dose, two-compartment model

CC[C@H](C)C[C@H](C)CCCCCCCCC(=O)N[C@H]1C[C@@H](O)[C@@H](NCCN)NC(=O)[C@@H]2[C@@H](O)CCN2C(=O)[C@H]([C@H](O)CCN)NC(=O)[C@H]([C@H](O)[C@@H](O)c2ccc(O)cc2)NC(=O)[C@@H]2C[C@@H](O)CN2C(=O)[C@H]([C@@H](C)O)NC1=O [caspofungin]
Vc [1, 3]: 5.27 L
Vp [1, 3]: 6.31 L
Vc [1, 4]: 3.14 L
Vp [1, 4]: 4.98 L
Q ([1]; control group, median): 2.85 L/h
clearance ([1]; population estimate, 58 patients (27 HTx, 31 non-HTx), 414 plasma concentrations, 50 mg q24h 1-h i.v. infusion after 70 mg loading dose, LC-MS/MS, two-compartment model, read-out: CL (clearance), final model estimate (converted)): 6.42 mL/min
clearance ([1]; plasma, 50 mg, Control group (n = 31), median (range), read-out: CL (converted)): 7.5 mL/min
Cmax ([1]; plasma, 50 mg, Control group, non-HTx critically ill patients (n = 31), median (range), 50 mg q24h 1-h i.v. infusion after 70 mg loading dose): 7890 ng/mL
Cmax ([1]; plasma, 50 mg, Heart transplantation group (n = 27), median (range), 50 mg q24h 1-h i.v. infusion after 70 mg loading dose): 11700 ng/mL
clearance ([1]; plasma, 50 mg, Heart transplantation group (n = 27), median (range), read-out: CL (converted)): 5.83 mL/min
Q (intercompartmental clearance), final model estimate [1, 5]: 2.85 L/h
Vc (volume of distribution of the central compartment), final model estimate [1, 5]: 4.27 L
Vp (volume of distribution of the peripheral compartment), final model estimate [1, 5]: 6.01 L
protein binding rate [2]: 97%
target AUC/MIC value (Candida albicans): greater than 865
target AUC/MIC value (Candida glabrata): > 450
target AUC/MIC value (Candida parapsilosis): > 1,185
